The target in assay [1] is HIV-1 protease (Human immunodeficiency virus type 1 group M subtype B, UniProt P04585). Nature of the assay: biochemical.
Assay [2] has as its system HIV-1 (strain IIIB). Nature of the assay: microbe, parasite or virus in culture. Format: cell-based. The note with it: Human immunodeficiency virus 1, 120 h; MT4 cells infected with HIV-1 strain IIIB, 5 days; lower line of each compound's entry; read-out: IC50 (MT-4 cells).
Where [3] appears, read: HIV-1 protease, upper line of each compound's entry, read-out: Ki (enzyme).

SMILES strings stand for the structures. Like-named read-outs stand apart in the source and are kept apart here.

For the compound `COC(=O)NCCNc1cccc(S(=O)(=O)N(CC(O)C(Cc2ccccc2)NC(=O)OC2COC3OCCC23)OC2CCCC2)c1` (mixture of isomers) [Compound 124, (3R,3aS,6aR)hexahydrofuro[2,3-b]furan-3-yl N-[(1S,2R)-1-benzyl-3-((cyclopentyloxy)[3-(2-[(methoxycarbonyl)amino]ethylamino)phenyl]sulfonylamino)-2-hydroxypropyl]carbamate and (3S,3aR,6aS)hexahydrofuro[2,3-b]furan-3-yl N-[(1S,2R)-1-benzyl-3-((cyclopentyloxy)[3-(2-[(methoxycarbonyl)amino]ethylamino)phenyl]sulfonylamino)-2-hydroxypropyl)carbamate], in assay [1] (setting [3]), the Ki was < 1 nM. For the same compound, the IC50 in assay [2] is ≤ 100 nM.
As to `CC(C)(C)OC(=O)N[C@@H](Cc1ccccc1)[C@H](O)CN(OC1CCCC1)S(=O)(=O)c1ccc2nc(N)[nH]c2c1` [Compound 106, Tert-butyl N-(1S,2R)-1-benzyl-3-[(cyclopentyloxy)(2-amino-1H-benzimidazol-5-ylsulfonyl)amino]-2-hydroxypropylcarbamate], the Ki in assay [1] (setting [3]) was < 1 nM. Further, the IC50 in assay [2] lay in the range of 100 to 500 nM.
For `COc1ccc(S(=O)(=O)N(C[C@@H](O)[C@H](Cc2ccccc2)NC(=O)OC(C)(C)C)OC2CCOC2)cc1` (stereo partly drawn) [Compound 20, tert-butyl N-(1S,2R)-1-benzyl-2-hydroxy-3-[[(4-methoxyphenyl)sulfonyl](tetrahydro-3-furanyloxy)amino]propylcarbamate], in that order: 1 to 10 nM and > 1000 nM.
For `CS(=O)(=O)Nc1nc2cc(S(=O)(=O)N(C[C@@H](O)[C@H](Cc3ccccc3)NC(=O)O[C@H]3CO[C@H]4OCC[C@H]43)OC3CCCC3)ccc2[nH]1` [Compound 40, (3R,3aS,6aR)Hexahydrofuro[2,3-b]furan-3-yl-N-((1S,2R)-1-benzyl-3-(cyclopentyloxy)(2-[(methylsulfonyl)amino]benzimidazol-5-ylsulfonyl)amino-2-hydroxypropyl)carbamate], in that order: < 1 nM and ≤ 100 nM.
The matching figures for `Nc1ccc(S(=O)(=O)N(C[C@@H](O)[C@H](Cc2ccccc2)NC(=O)O[C@H]2CO[C@H]3OCC[C@H]32)OC2CCCCC2)cc1` [Compound 153, (3R,3aS,6aR)hexahydrofuro[2,3-b]furan-3-yl(1S,2R)-3-[[(4-aminophenyl)sulfonyl](cyclohexyloxy)amino]-1-benzyl-2-hydroxypropylcarbamate]: < 1 nM and ≤ 100 nM.
As to `CC(C)ON(C[C@@H](O)[C@H](Cc1ccccc1)NC(=O)OC(C)(C)C)S(=O)(=O)c1ccc2[nH]c(NS(C)(=O)=O)nc2c1` [Compound 5], the Ki in assay [1] (setting [3]) was 1 to 10 nM. The IC50 in assay [2] was 500 to 1000 nM.
For `O=C(N[C@@H](Cc1ccccc1)[C@@H](CN(OC1CCCC1)S(=O)(=O)c1ccc2c(c1)OCO2)OP(=O)(O)O)O[C@H]1CO[C@H]2OCC[C@H]21` [Compound 143, (3R,3aS,6aR)hexahydrofuro[2,3-b]furan-3-yl N-[(1S,2R)-3-[(1,3-benzodioxol-5-ylsulfonyl)(cyclopentyloxy)amino]-1-benzyl-2-(phosphonooxy)propyl]carbamate], in that order: < 1 nM and ≤ 100 nM.
The matching figures for `CS(=O)(=O)Nc1nc2cc(S(=O)(=O)N(C[C@@H](O)[C@H](Cc3ccccc3)NC(=O)O[C@@H]3CO[C@@H]4OCC[C@@H]43)OC3CCCC3)ccc2[nH]1` [Compound 39, (3S,3aR,6aS)Hexahydrofuro[2,3-b]furan-3-yl-N-((1S,2R)-1-benzyl-3-(cyclopentyloxy)(2-[(methylsulfonyl)amino]benzimidazol-5-ylsulfonyl)amino-2-hydroxypropyl)carbamate]: < 1 nM and 100 to 500 nM.
Consider `COc1ccc(S(=O)(=O)N(C[C@@H](O)[C@H](Cc2ccccc2)NC(=O)OC2CO[C@H]3OCC[C@@H]23)OCC(C)C)cc1` (stereo partly drawn) [Compound 145, (3R,3aS,6aR)hexahydrofuro[2,3-b]furan-3-yl N-((1S,2R)-1-benzyl-2-hydroxy-3-isobutoxy[(4-methoxyphenyl)sulfonyl]aminopropyl)carbamate], for which, in assay [1], the inhibition constant Ki was < 1 nM. Besides, the IC50 in assay [2] is ≤ 100 nM.
Regarding `NC(=O)C[C@H](NC(=O)c1ccc2ccccc2n1)C(=O)N[C@@H](Cc1ccccc1)[C@H](O)CN(OC1CCCC1)S(=O)(=O)c1ccc2cn[nH]c2c1` [Compound 52], the Ki in assay [1] (setting [3]) is < 1 nM. In assay [2], the IC50 is ≤ 100 nM.
As to `CCC(CC)ON(C[C@@H](O)[C@H](Cc1ccccc1)NC(=O)O[C@H]1CO[C@H]2OCC[C@H]21)S(=O)(=O)c1ccc(O)cc1` [Example 166, (3R,3aS,6aR)hexahydrofuro[2,3-b]furan-3-yl(1S,2R)-1-benzyl-3-{(1-ethylpropoxy)[(4-hydroxyphenyl)sulfonyl]amino}-2-hydroxypropylcarbamate], the Ki in assay [1] (setting [3]) is < 1 nM. The IC50 in assay [2] was ≤ 100 nM.
For `CC(C)ON(C[C@@H](O)[C@H](Cc1ccccc1)NC(=O)OC(C)(C)C)S(=O)(=O)c1ccc2[nH]c(=O)[nH]c2c1` [Compound 4], in that order: 10 to 100 nM and > 1000 nM.
`O=C(N[C@@H](Cc1ccccc1)[C@H](O)CN(OC1CCCCC1)S(=O)(=O)c1ccc2c(c1)OCCO2)O[C@H]1CO[C@H]2OCC[C@H]21` [Compound 156, (3R,3aS,6aR)hexahydrofuro[2,3-b]furan-3-yl(1S,2R)-1-benzyl-3-[(cyclohexyloxy)(2,3-dihydro-1,4-benzodioxin-6-ylsulfonyl)amino]-2-hydroxypropylcarbamate]: the Ki in assay [1] (setting [3]) was < 1 nM. The IC50 in assay [2] is ≤ 100 nM.
With `O=C(N[C@@H](Cc1ccccc1)[C@H](O)CN(OC1CCCCC1)S(=O)(=O)c1cccc(O)c1)O[C@H]1CO[C@H]2OCC[C@H]21` [Example 159, (3R,3aS,6aR)hexahydrofuro[2,3-b]furan-3-yl(1S,2R)-1-benzyl-3-{(cyclohexyloxy)[(3-hydroxyphenyl)sulfonyl]amino}-2-hydroxypropylcarbamate], the Ki in assay [1] (setting [3]) was < 1 nM. For the same compound, in assay [2], the IC50 is ≤ 100 nM.
The matching figures for `O=C(NC(Cc1ccccc1)C(O)CN(OC1CCCC1)S(=O)(=O)c1cccc(NCCO)c1)OC1COC2OCCC12` [Compound 36, (3R,3aS,6aR)hexahydrofuro[2,3-b]furan-3-yl N-(1S,2R)-1-benzyl-3-[(cyclopentyloxy)(3-[(2-hydroxyethyl)amino]phenylsulfonyl)amino]-2-hydroxypropylcarbamate and (3S,3aR,6aS)hexahydrofuro[2,3-b]furan-3-yl N-(1S,2R)-1-benzyl-3-[(cyclopentyloxy) (3-[(2-hydroxyethyl)amino]phenylsulfonyl)amino]-2-hydroxypropylcarbamate]: < 1 nM and ≤ 100 nM.
The matching figures for `COc1ccc(S(=O)(=O)N(C[C@@H](O)[C@H](Cc2ccccc2)NC(=O)OC2COCOC2)OC2CCCC2)cc1` [Compound 48, 1,3-dioxan-5-yl N-((1S,2R)-1-benzyl-3-(cyclopentyloxy)[(4-methoxyphenyl)sulfonyl]amino-2-hydroxypropyl)carbamate]: < 1 nM and 100 to 500 nM.
The matching figures for `O=C(N[C@@H](Cc1ccccc1)[C@H](O)CN(OC1CCCC1)S(=O)(=O)c1ccc2cn[nH]c2c1)O[C@H]1CCOC1` [Compound 58, (3S)Tetrahydro-3-furanyl N-(1S,2R)-1-benzyl-3-[(cyclopentyloxy)(1H-indazol-6-ylsulfonyl)amino]-2-hydroxypropylcarbamate]: < 1 nM and 100 to 500 nM.
In the case of `CONC(=O)CNc1cccc(S(=O)(=O)N(CC(O)C(Cc2ccccc2)NC(=O)OC2COC3OCCC23)OC2CCCC2)c1` (mixture of isomers) [Example 168, (3R,3aS,6aR)hexahydrofuro[2,3-b]furan-3-yl N-[(1S,2R)-1-benzyl-3-((cyclopentyloxy)[3-(2-[methoxyamino]-2-oxoethylamino)phenyl]sulfonylamino)-2-hydroxypropyl]carbamate and (3S,3aR,6aS)hexahydrofuro[2,3-b]furan-3-yl N-[(1S,2R)-1-benzyl-3-((cyclopentyloxy)[3-(2-[methoxyamino]-2-oxoethylamino)phenyl]sulfonylamino)-2-hydroxypropyl]carbamate], the Ki in assay [1] (setting [3]) was < 1 nM. In addition, the IC50 in assay [2] is ≤ 100 nM.
Take `Nc1cccc(S(=O)(=O)N(C[C@@H](OP(=O)(O)O)[C@H](Cc2ccccc2)NC(=O)O[C@H]2CO[C@H]3OCC[C@H]32)OC2CCCC2)c1` [Compound 100, Phosphate ester of (3R,3aS,6aR)hexahydrofuro[2,3-b]furan-3-yl N-(1S,2R)-3-[[(3-aminophenyl)sulfonyl](cyclopentyloxy)amino]-1-benzyl-2-hydroxypropylcarbamate]: the Ki in assay [1] (setting [3]) lay within 10 to 100 nM. For the same compound, the IC50 in assay [2] is 100 to 500 nM.
The matching figures for `CNc1cccc(S(=O)(=O)N(C[C@@H](O)[C@H](Cc2ccccc2)NC(=O)O[C@H]2CO[C@H]3OCC[C@H]32)OC2CCCC2)c1` [Compound 45, (3R,3aS,6aR)hexahydrofuro[2,3-b]furan-3-yl N-(1S,2R)-3-[[(3-N-methylaminophenyl)sulfonyl](cyclopentyloxy)amino]-1-benzyl-2-hydroxypropylcarbamate]: < 1 nM and ≤ 100 nM.
The matching figures for `O=C(N[C@@H](Cc1ccccc1)[C@H](O)CN(OC1CCCC1)S(=O)(=O)c1ccc2nc[nH]c2c1)O[C@H]1CO[C@H]2OCC[C@H]21` [Compound 46, (3R,3aS,6aR)hexahydrofuro[2,3-b]furan-3-yl N-(1S,2R)-3-[(1H-benzimidazol-6-ylsulfonyl)(cyclopentyloxy)amino]-1-benzyl-2-hydroxypropylcarbamate]: < 1 nM and ≤ 100 nM.
For `O=C(N[C@@H](Cc1ccccc1)[C@H](O)CN(OC1CCCCC1)S(=O)(=O)c1ccc(O)cc1)O[C@H]1CO[C@H]2OCC[C@H]21` [Example 160, (3R,3aS,6aR)hexahydrofuro[2,3-b]furan-3-yl(1S,2R)-1-benzyl-3-{(cyclohexyloxy)[(4-hydroxyphenyl)sulfonyl]amino}-2-hydroxypropylcarbamate], in that order: < 1 nM and ≤ 100 nM.

Values taken from US20040097594A1 (priority 1998, published 2004).
